{"source": "patent US20200188382A1", "about": "“PHARMACEUTICAL COMPOSITION FOR INDUCING PROGRAMMED CELL DEATH IN CANCER CELLS” (KYOTO UNIVERSITY, priority 2016, published 2020)", "assay_type_in_all_cases": "cell-based", "key": {"[1]": {"tested_on": "Human cervical cancer cell line HeLa", "test": "Induction of production of NO in cancer cells (DAF-FM DA, flow cytometry)", "conditions": "10 μM, 10 hours at 37° C., MEM (No Glucose) containing 0.1% Galactose and 5% FBS, FIG. 1", "method": "The amount of nitric oxide (NO) produced in cancer cells was measured using a nitric oxide detection indicator. Specifically, Compound 1 prepared as described above was added to cancer cells that were to be cultured under the following conditions such that the concentration of Compound 1 was 10 μM, and the cancer cells were cultured for 10 hours, then flow cytometry was performed while the NO detection indicator was in contact therewith, and fluorescence intensity and cell number distribution were measured.\n(§1) Cancer cells: Human cervical cancer cell line HeLa\n(§2) Nutrient sources of culture medium: MEM (No Glucose) containing 0.1% Galactose and 5% FBS\nCulture time after Compound 1 or DMSO was added: 10 hours at 37° C.\nNitric oxide detection indicator: Diaminofluorescein-FM diacetate (DAF-FM DA)"}, "[2]": {"tested_on": "Human cervical cancer cell line HeLa", "test": "Antitumor activity: number of living cells by CFSE-DA staining and WST-8 assay", "conditions": "5, 10, or 20 μM, 4 days at 37° C., MEM containing 5% FBS, CFSE-DA and WST-8, FIGS. 2 and 3", "method": "The antitumor effect on cancer cells was confirmed through measurement of the number of living cells using two methods.\nSpecifically, Compound 1 prepared as described above was added to cancer cells that were to be cultured under the following conditions such that the concentration of Compound 1 was 5, 10, or 20 μM, cancer cells were cultured for 4 days, and then an effect of Compound 1 on cancer cells was confirmed through fluorescence staining of living cells using CFSE-DA (FIG. 2) and WST-8 assays (FIG. 3).\nas §1\nNutrient sources of culture medium: MEM containing 5% FBS\nCulture time after Compound 1 or DMSO was added: 4 days at 37° C.\nCFSE: 5- or 6-(N-Succinimidyloxycarbonyl)fluorescein 3′,6′-diacetate"}, "[3]": {"tested_on": "Human cervical cancer cell line HeLa", "test": "NO dependency of caspase 3 activation (NO scavenger / NO synthesis inhibitor), flow cytometry", "conditions": "FIG. 5", "method": "It was confirmed that the activity of Caspase-3 above was NO-dependent, using two types of methods in which an NO scavenger and an NO synthesis inhibitor were used.\nThat is, first, the NO scavenger (0.2 mM) or NO synthesis inhibitor (4 mM) described above was added to cancer cells that were to be cultured under the following conditions, and the cancer cells were cultured for 1 hour, Compound 1 prepared as described above was added thereto such that the concentration of Compound 1 was 10 μM, the cancer cells were cultured for 15 hours, flow cytometry was then performed while a caspase 3 substrate and a membrane impermeable DNA stain were in contact therewith, and thus two-color dot plots were created.\nas §1, §2\nCulture time after NO scavenger and NO synthesis inhibitor were added: 1 hour at 37° C.\nNO scavenger: Carboxy-PTIO (cPTIO)\nNO synthesis inhibitor: L-NAME (NO synthatase inhibitor)\nCulture time after Compound 1 or DMSO was added: 15 hours\nCaspase 3 substrate: NucView (trademark, Biotium) 488\nMembrane impermeable DNA stain: DRAQ7 (trademark, BioStatus)"}, "[4]": {"tested_on": "Human cervical cancer cell line HeLa", "test": "Programmed cell death under glucose starvation, WST-8 assay", "conditions": "16 hours at 37° C., MEM with 0.1% Glucose or 0.1% Galactose (No Glucose) and 5% FBS, FIG. 6", "method": "It was confirmed that programmed cell death of cancer cells by Compound 1 was facilitated under glucose starvation.\nSpecifically, the nutrient source of a culture medium used when Compound 1 was applied to cancer cells was set to either glucose (Glc) or galactose (Gal), cancer cells were cultured for 16 hours, and the survival rate of cancer cells was measured using WST-8 assays.\nas §1\nCulture medium before Compound 1 was added: MEM containing 10% FBS\nCulture medium after Compound 1 was added: MEM containing 0.1% Glucose and 5% FBS, or containing 0.1% Galactose and 5% FBS (No Glucose)\nCulture time after Compound 1 was added: 16 hours at 37° C."}, "[5]": {"tested_on": "a plurality of cancer cell lines", "test": "Antitumor effect on a plurality of cancer cell lines"}}}
{"smiles": "O=S(=O)(Nc1cc(C(F)(F)F)ccc1N1CC[C@@H]2CCCC[C@H]2C1)c1ccc(F)cc1", "note": "[Compound 1]", "values": [{"measurement": "production of NO in cells", "setting": "[1]", "result": "enhanced"}, {"measurement": "antitumor effect (survival rate of cancer cells)", "setting": "[2]", "result": "antitumor effect of reducing the survival rate of cancer cells"}, {"measurement": "NO dependency of induced programmed cell death", "setting": "[3]; 10 μM, cPTIO or L-NAME", "result": "NO-dependent"}, {"measurement": "ratio of cells with DRAQ7 negative and NucView 488 positive", "setting": "[3]; Compound 1 at 10 μM alone, 15 hours, no glucose/0.1% Galactose, control 7.8%", "result": 36.1, "unit": "%"}, {"measurement": "ratio of cells with DRAQ7 negative and NucView 488 positive under the presence of cPTIO", "setting": "[3]; Compound 1 at 10 μM, 15 hours, after 1 hour with NO scavenger cPTIO 0.2 mM", "result": 13.9, "unit": "%"}, {"measurement": "ratio of cells with DRAQ7 negative and NucView 488 positive under the presence of L-NAME", "setting": "[3]; Compound 1 at 10 μM, 15 hours, after 1 hour with NO synthesis inhibitor L-NAME 4 mM", "result": 22.7, "unit": "%"}, {"measurement": "programmed cell death (survival rate) in glucose vs galactose medium", "setting": "[4]", "result": "facilitated in a glucose depleted state"}, {"measurement": "antitumor effect", "setting": "[5]", "result": "exhibited an antitumor effect on a plurality of cancer cell lines"}]}
